# Laboratory results: PMC9864848, “A Study of the Interaction between Xanthine Oxidase and Its Inhibitors from Chrysanthemum morifolium Using Computational Simulation and Multispectroscopic Methods” (Metabolites, 2023)
# Where two headings read alike, the source gives them in different places.
# Legend:
# XO [1] = conditions: cited from earlier work
# XO [2] = molecular target: T1, XO (Bos taurus, UniProt P80457); assay: Circular dichroism (CD) analysis of XO secondary structure; design: species or system Bovine
# T1 construct: purchased Roche Diagnostics (Mannheim, Germany)
# T1 sequence (P80457 whole entry): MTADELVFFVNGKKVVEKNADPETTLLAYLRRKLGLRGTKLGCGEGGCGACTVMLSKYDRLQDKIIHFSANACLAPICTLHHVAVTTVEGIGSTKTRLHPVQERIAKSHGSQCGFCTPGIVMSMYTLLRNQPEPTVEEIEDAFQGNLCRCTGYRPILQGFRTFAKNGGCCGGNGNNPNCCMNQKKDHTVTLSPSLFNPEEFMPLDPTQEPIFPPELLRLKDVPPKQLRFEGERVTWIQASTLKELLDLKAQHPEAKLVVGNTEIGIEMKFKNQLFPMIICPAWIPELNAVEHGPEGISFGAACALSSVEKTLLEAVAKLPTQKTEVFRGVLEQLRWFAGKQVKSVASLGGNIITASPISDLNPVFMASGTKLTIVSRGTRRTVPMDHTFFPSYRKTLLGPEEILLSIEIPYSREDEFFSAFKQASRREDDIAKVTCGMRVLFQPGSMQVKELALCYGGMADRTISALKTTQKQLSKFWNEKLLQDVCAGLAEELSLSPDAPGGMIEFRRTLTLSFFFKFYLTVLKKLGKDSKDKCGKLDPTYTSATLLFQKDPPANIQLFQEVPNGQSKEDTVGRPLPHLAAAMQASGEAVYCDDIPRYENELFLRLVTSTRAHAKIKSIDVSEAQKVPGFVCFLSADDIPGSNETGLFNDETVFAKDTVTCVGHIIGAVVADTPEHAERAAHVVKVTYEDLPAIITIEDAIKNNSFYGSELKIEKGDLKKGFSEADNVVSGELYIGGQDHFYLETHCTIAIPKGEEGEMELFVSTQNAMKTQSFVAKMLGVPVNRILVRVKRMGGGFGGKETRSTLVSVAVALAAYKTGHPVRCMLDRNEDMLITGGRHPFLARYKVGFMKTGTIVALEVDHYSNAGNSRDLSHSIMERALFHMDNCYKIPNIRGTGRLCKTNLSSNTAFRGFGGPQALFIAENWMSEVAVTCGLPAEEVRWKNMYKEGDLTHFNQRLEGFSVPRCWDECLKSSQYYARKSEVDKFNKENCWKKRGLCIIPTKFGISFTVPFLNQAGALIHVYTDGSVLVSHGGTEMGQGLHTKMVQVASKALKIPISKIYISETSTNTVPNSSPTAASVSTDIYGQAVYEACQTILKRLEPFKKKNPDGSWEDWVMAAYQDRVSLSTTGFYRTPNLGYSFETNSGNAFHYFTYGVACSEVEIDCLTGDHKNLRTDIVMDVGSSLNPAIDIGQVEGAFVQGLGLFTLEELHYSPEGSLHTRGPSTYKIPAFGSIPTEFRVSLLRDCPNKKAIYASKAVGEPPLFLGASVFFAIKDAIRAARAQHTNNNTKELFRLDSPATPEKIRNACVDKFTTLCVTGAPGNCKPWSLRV
# Method: The analysis was carried out according to a modified method. […] The measurement was performed in potassium phosphate buffer (pH 7.5) at room temperature. […] The JASCO SSE (Secondary Structure Estimation) software was used to analyze the CD spectroscopic data with Reed’s reference to obtain the data of various secondary structures of XO with respective ligands.
# XO [3] = molecular target: T1, XO; assay: Fluorescence quenching assay of XO; assay type: binding, Bovine; conditions: pH 7.5; for Kd: Modified Stern-Volmer association constant Ka
# Method: The assay was carried out by referring to a previous method with slight modifications. […] Titrations were performed manually and mixed carefully. […] The excitation wavelength was set at 280 nm, and the excitation and emission slits were 5 nm. The fluorescence background was corrected by subtracting the relevant blanks corresponding to the potassium phosphate buffer (pH 7.5).
# To distinguish the mechanism of quenching various inhibitors on XO, the fluorescence quenching output was analyzed by applying the Stern-Volmer equation [34]: F0/F=1+KSV[Q]=1+Kqτ0[Q] where F0 and F represent the steady-state fluorescence intensities of XO in the absence and presence of the respective inhibitor. KSV is the Stern-Volmer quenching constant, determined from the slope of the linear regression of F0/F against the [Q] plot. [Q] represents the concentration of the inhibitor.
# Then, Ka values for the inhibitor-XO complex at three different temperatures were calculated from the linear regression of F0/(F0 − F) against 1/[Q].
# xanthine oxidase = molecular target: T2, xanthine oxidase (Bos taurus, UniProt P80457); assay: Xanthine oxidase (XO) inhibitory assay; assay type: biochemical, Bovine; conditions: read-out: XO inhibition (%)
# T2 construct: purchased Roche Diagnostics (Mannheim, Germany)
# T2 sequence (P80457 whole entry): as above
# Method: A total of 100 μL of test samples containing dimethyl sulfoxide (100 μg/mL) and 0.1 U/mL xanthine oxidase (100 µL) were added to a 0.05 M potassium phosphate buffer (1.3 mL, pH 7.5). The mixture was then incubated at 25 °C for 10 min. A 1 mL of 0.15 mM xanthine was added into the solution, then incubated at 30 °C for 10 min. […] The percentage of XO inhibition was calculated as follows: Inhibition (%)=Absorbancenegative control−Absorbancesample/Absorbancenegative control×100% Absorbancenegative control = Absorbance of the negative control (without inhibitors) Absorbancesample = Absorbance of the solution containing test samples
# [4] = molar ratio XO:inhibitor 1:5, pH 7.5 (free XO 15.4)
# [5] = molar ratio XO:inhibitor 1:5, pH 7.5 (free XO 19.7)
# [6] = molar ratio XO:inhibitor 1:5, pH 7.5 (free XO 65.0)
# [7] = molar ratio XO:inhibitor 1:10, pH 7.5 (free XO 15.4)
# [8] = molar ratio XO:inhibitor 1:10, pH 7.5 (free XO 19.7)
# [9] = molar ratio XO:inhibitor 1:10, pH 7.5 (free XO 65.0)
# [10] = at 100 μg/mL, mean ± SEM, n = 3
# [11] = previous study, read-out: IC50 (XO inhibitory effect)
Compound,"IC50 (XO [1]; ref 27 (Chang et al.), read-out: IC50 (XO inhibition)) [µM]",Random Coil (%) of XO (XO [2]; [4]) [%],α-Helix (%) of XO (XO [2]; [5]) [%],β-Sheet (%) of XO (XO [2]; [6]) [%],Random Coil (%) of XO (XO [2]; [7]) [%],α-Helix (%) of XO (XO [2]; [8]) [%],β-Sheet (%) of XO (XO [2]; [9]) [%],Quenching constant KSV (XO [3]; 298 K) [L/mol],Quenching rate constant Kq (XO [3]; 298 K) [M⁻¹ s⁻¹],Quenching constant KSV (XO [3]; 304 K) [L/mol],Quenching rate constant Kq (XO [3]; 304 K) [M⁻¹ s⁻¹],Quenching constant KSV (XO [3]; 310 K) [L/mol],Quenching rate constant Kq (XO [3]; 310 K) [M⁻¹ s⁻¹],Kd (XO [3]; 298 K) [µM],Kd (XO [3]; 304 K) [µM],Kd (XO [3]; 310 K) [µM],inhibition at 100 µg/mL (xanthine oxidase; [10]) [%],IC50 (XO [1]; [11]) [µM],XO inhibitory potency (in words) (XO [1]; ref 28 (Mohos et al.)),inhibition at 100 µg/mL (xanthine oxidase) [%]
"O=C(O)/C=C/c1ccccc1 [Trans-cinnamic acid, trans-cinnamic acid]",> 200,0.0,36.4,63.6,22.7,10.4,66.9,180000,6.429e+13,282300,1.008e+14,278400,9.943e+13,8.02,3.62,3.49,57.6 ± 6,–,–,–
"O=c1c(O)c(-c2ccc(O)cc2)oc2cc(O)cc(O)c12 [Kaempferol, kaempferol]",–,11.2,17.1,71.7,34.2,0.0,65.8,97700,3.489e+13,396400,1.416e+14,277900,9.925e+13,–,–,–,81.9 ± 3.31,2.18 ± 0.02,–,–
"O=c1cc(-c2ccc(O)cc2)oc2cc(O)cc(O)c12 [Apigenin, apigenin]",–,22.2,10.8,67.0,0.0,36.7,63.3,130200,4.65e+13,332400,1.187e+14,182100,6.504e+13,5.33,3.5,4.3,56.6 ± 1.77,3.2,–,–
"COc1cc(CC(=O)O)ccc1O [Homovanillic acid, homovanillic acid]",–,0.0,36.3,63.7,27.0,5.1,67.9,49100,1.754e+13,93100,3.325e+13,698800,2.4957e+14,5.61,2.67,4.15,–,–,less potent inhibitor of XO,30 ± 2.18
"Oc1ncnc2[nH]ncc12 [Allopurinol, allopurinol, reference compound]",–,–,–,–,–,–,–,–,–,–,–,–,–,–,–,–,–,–,–,96.5 ± 2.4
